From US7772428B2, “Creatine hydroxycitric acids salts and methods for their production and use in individuals” (Northern Innovations and Formulations, priority 2005, dated 2010)
Read-outs that look alike come from different tables or passages of the source.

Assays:
[1] = in vivo
[2] = Stability (in water and acidic solutions); conditions: stated in words, Example 1
Bioavailability = conditions: stated in words, Example 1
ATP citrate lyase = molecular target: T1, ATP citrate lyase (Homo sapiens, UniProt P53396); conditions: cited from earlier work
T1 sequence (P53396 1-1101): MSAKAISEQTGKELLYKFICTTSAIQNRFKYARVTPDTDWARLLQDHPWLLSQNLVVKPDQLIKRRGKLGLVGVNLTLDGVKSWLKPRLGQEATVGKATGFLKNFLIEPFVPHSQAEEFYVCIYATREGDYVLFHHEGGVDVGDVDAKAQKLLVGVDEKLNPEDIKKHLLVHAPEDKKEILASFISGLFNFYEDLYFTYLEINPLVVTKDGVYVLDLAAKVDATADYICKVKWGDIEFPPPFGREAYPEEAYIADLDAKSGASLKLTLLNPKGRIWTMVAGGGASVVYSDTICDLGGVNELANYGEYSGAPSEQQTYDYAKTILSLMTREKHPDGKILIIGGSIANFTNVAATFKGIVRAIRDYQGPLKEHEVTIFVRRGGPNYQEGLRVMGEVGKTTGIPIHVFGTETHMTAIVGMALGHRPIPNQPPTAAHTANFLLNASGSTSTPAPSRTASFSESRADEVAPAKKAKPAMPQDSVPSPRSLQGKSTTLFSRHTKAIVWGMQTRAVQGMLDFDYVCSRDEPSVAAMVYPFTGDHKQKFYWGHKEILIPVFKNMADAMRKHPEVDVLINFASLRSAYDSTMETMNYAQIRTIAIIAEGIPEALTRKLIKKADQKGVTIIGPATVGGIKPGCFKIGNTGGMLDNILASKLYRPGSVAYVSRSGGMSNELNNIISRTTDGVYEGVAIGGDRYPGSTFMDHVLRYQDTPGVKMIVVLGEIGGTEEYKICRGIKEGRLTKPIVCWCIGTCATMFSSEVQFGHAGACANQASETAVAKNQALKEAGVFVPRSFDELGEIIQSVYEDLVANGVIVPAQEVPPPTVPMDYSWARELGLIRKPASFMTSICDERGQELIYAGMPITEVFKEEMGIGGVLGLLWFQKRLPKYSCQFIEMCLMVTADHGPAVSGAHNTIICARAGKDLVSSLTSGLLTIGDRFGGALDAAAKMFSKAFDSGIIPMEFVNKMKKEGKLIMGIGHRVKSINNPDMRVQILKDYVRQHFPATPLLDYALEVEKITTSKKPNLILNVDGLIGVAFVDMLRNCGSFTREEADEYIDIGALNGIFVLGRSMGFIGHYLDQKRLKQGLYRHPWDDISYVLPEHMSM

[3] = daily doses of about 20 g of creatine for 5-7 days; cited from earlier work

Compound	stability [2]	bioavailability (Bioavailability)	also measured
CN(CC(=O)O)C(=N)N.O.O=C([O-])CC(O)(C(=O)[O-])C(O)C(=O)O.[K+].[K+] (stereo not shown) [(Mono)-creatine dipotassium hydroxycitrate monohydrate]			bioavailability [1]: bioavailable
CN(CC(=O)O)C(=N)N.CN(CC(=O)O)C(=N)N.O.O=C(O)CC(O)(C(=O)O)C(O)C(=O)[O-].[K+] (stereo not shown) [Dicreatine (mono) potassium hydroxycitrate monohydrate]	stable	bioavailable	
O=C(O)CC(O)(C(=O)O)C(O)C(=O)O (stereo not shown) [Hydroxycitric acid]			activity of ATP citrate lyase (ATP citrate lyase): inhibit
CN(CC(=O)O)C(=N)N [creatine]			increase of total creatine content in the muscle [3]: 10-25%
Tricreatine hydroxycitrate monohydrate	stable	bioavailable	
